The results in this text go back to the METLIN SMRT retention time set (Domingo-Almenara et al. 2019).

The structures appear in SMILES notation.

This series can be described thus: gradient 5% acetonitrile 3 min, to 50% in 2 min, to 85% in 15 min, held 3 min, 100 µL/min. The settings on record: column: Zorbax Extend-C18 2.1 x 50 mm; eluents: water / acetonitrile, 0.1% formic acid. In a few lines:
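Retention times come from adduct peaks that were picked computationally and then checked by hand. The standards, pure and pooled in mixtures of ~100 molecules, were run on a Zorbax Extend-C18 column (2.1 × 50 mm, 1.8 μm) at 100 μL/min with water and acetonitrile, each with 0.1% formic acid. Detection was by quadrupole time-of-flight mass spectrometry in positive and negative ionization mode, with a dead volume of 40 μL and a dwell volume of 900 μL.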
Compound `Cn1cc(-c2noc(-c3ccc(F)cc3)n2)ccc1=O` registered an RP-LC retention time of 827 s.

Compound `CCNC(=O)N1CCCC(c2cccc(C(=O)NCCC3=CCCCC3)c2)C1` (stereo not given) returned an RP-LC retention time of 906 s.

In the case of `O=C(O)c1cccn2c(=O)c3cc(Cl)ccc3nc12`, the RP-LC retention time came to 782 s.

`CC(C)n1c(N2CCN(C(=O)COc3ccc(F)cc3)CC2)cc(=O)n(C(C)C)c1=O` returned an RP-LC retention time of 904 s.

`O=C(NCC1CCN(c2ncccn2)CC1)c1ccc(Br)o1` displayed an RP-LC retention time of 647 s.

As to `COCCc1nncn1C1CCN(S(=O)(=O)c2cccc(C(F)(F)F)c2)CC1`, the RP-LC retention time stood at 752 s.

On to `CC1=NS(=O)(=O)N(C)C=C1C(=O)OCCc1ccccc1`, for which the RP-LC retention time was 967 s.

Compound `COc1ccc(NC(=O)Nc2ccc3nc(C)n(-c4ccccc4)c(=O)c3c2)cc1OC` displayed an RP-LC retention time of 679 s.

As for `Cc1cc(NC(=O)CCS(=O)(=O)c2ccc(F)cc2)n(-c2nc3ccccc3s2)n1`, the RP-LC retention time was found to be 1030 s.

For the compound `COc1ccc(-c2nn(-c3ccccc3)cc2C(=O)O)cc1N`, the RP-LC retention time turned out to be 661 s.

For `O=C(Nc1nnc(SCc2nnc(-c3cccc(F)c3)o2)s1)c1ccccc1`, the RP-LC retention time came to 887 s.

Take `CN(C)S(=O)(=O)N1CCC2(CC1)CN(c1cccc(F)c1)C2c1ccccc1` (stereo not given): the RP-LC retention time is 1250 s.

As to `O=C1CCC2(CCN1)CCN(S(=O)(=O)c1ccc(Cl)cc1)CC2`, the RP-LC retention time came to 758 s.

As for `CCCCN(C)C(=O)Cn1ccn2nc(-c3ccccc3)c(CO)c2c1=O`, the RP-LC retention time worked out at 776 s.

`CCN1CCN(C(=O)Cc2c(C(=O)O)c(C)cn2CC)CC1` showed an RP-LC retention time of 568 s.

As to `COc1cc(NC(=O)N2CCCN(c3ccc(=O)n(-c4ccc(F)cc4)n3)CC2)cc(OC)c1OC`, the RP-LC retention time stood at 702 s.

`CCN1C(=O)COc2ccc(-c3noc(-c4cnccn4)n3)cc21` returned an RP-LC retention time of 802 s.

For `CCn1cnc2ccc(-c3noc(-c4cccc(OC)c4)n3)cc21`, the RP-LC retention time was 788 s.

Compound `CN1C(=O)C2(CCN(C(=O)Cc3cccc(F)c3)C2)c2ccccc21` (stereo not given) had an RP-LC retention time of 803 s.

In turn, `CO[C@H]1C(=O)N(C2CCN(S(=O)(=O)C(C)C)CC2)[C@H]1c1ccncc1` gave an RP-LC retention time of 569 s.

`CC(=O)NCCc1csc(C2CCCN(C(=O)C3CCOC3)C2)n1` (stereo not given): the RP-LC retention time came out at 603 s.

`COc1ccc(-c2nc3cccc(C)n3c2Nc2ccc3c(c2)OCCO3)cc1` came in with an RP-LC retention time of 987 s.

`CC(C)Cn1c(=O)c(C(=O)NCc2cccc(C(F)(F)F)c2)nc2cccnc21`: the RP-LC retention time stood at 1030 s.

For the compound `CCS(=O)(=O)N1CCOc2ccc(NC(=O)COC)cc2C1`, the RP-LC retention time turned out to be 654 s.

The compound `CC1(C)CC(=O)c2cn(-c3ccccc3)c(=O)c(C(=O)Nc3cc(F)ccc3F)c2C1` returned an RP-LC retention time of 1030 s.

With `CC(=O)N1CCc2cc(C)c(S(=O)(=O)NC3CC3)cc21`, the RP-LC retention time was found to be 709 s.

`O=C(NCCc1c[nH]c2ccccc12)C(=O)NCC(c1ccco1)N1CCOCC1` (stereo not given): the RP-LC retention time came to 582 s.

`c1cc(CN2CCCCC2c2nncn2CC2CC2)cs1` (stereo not given) showed an RP-LC retention time of 559 s.

`Cc1cccc2c(C(=O)NC(C)C)cc(N3CCCC3)nc12` yielded an RP-LC retention time of 611 s.

`O=C(NC(c1ccccc1)c1nnc(N2CCCCC2)o1)C1CCCCC1` (stereo not given): the RP-LC retention time was 878 s.

In turn, `O=c1c2cc(-c3ccccc3Cl)nn2cnn1Cc1nc(-c2ccc(F)cc2)no1` had an RP-LC retention time of 1140 s.

On to `CCc1cc(=O)n(CC(=O)Nc2cccc(C)c2C)c(N)n1`, for which the RP-LC retention time turned out to be 608 s.

The compound `CC(C)n1cnc(S(=O)(=O)N2CCCC(C(=O)NCc3ccc(N(C)C)cc3)C2)c1` (stereo not given) showed an RP-LC retention time of 597 s.

The compound `CCOC(=O)CC(=O)CSc1nnc(CNC(=O)c2ccc(F)cc2)o1` displayed an RP-LC retention time of 678 s.

`Cc1cc2[nH]c(C(=O)Nc3cc(F)ccc3C)c(CN3CCOCC3)c2s1` gave an RP-LC retention time of 678 s.

`O=C(Nc1cccc(Cl)c1)Nc1ccc2nncn2c1` returned an RP-LC retention time of 735 s.

As to `O=C(Nc1cccc(Br)c1)C1CC(=O)N(c2n[nH]c3cccc(F)c23)C1` (stereo not given), the RP-LC retention time was determined as 824 s.

For `COc1ccc(C2c3[nH]c4ccccc4c3CCN2C(=O)Cc2cccs2)cc1` (stereo not given), the RP-LC retention time worked out at 1110 s.

Take `COC(=O)Cn1c(=O)oc2cc(S(=O)(=O)N3CCN(c4ccccn4)CC3)ccc21`: the RP-LC retention time was determined as 624 s.

`CCc1cccc(C)c1Nc1c(-c2ccc(C)cc2)nc2nc(C)cc(C)n12` registered an RP-LC retention time of 880 s.

The compound `Cn1c(=O)n([C@@H]2CCN(C(=O)c3ccc4c(c3)OCO4)C2)c2ncccc21` displayed an RP-LC retention time of 688 s.

For the compound `COc1ccc(-n2c(=O)c3sccc3n(Cc3nc(-c4ccc(OC(C)C)cc4)no3)c2=O)cc1`, the RP-LC retention time worked out at 1060 s.

Regarding `O=S(=O)(c1ccc(F)cc1)N1CCCC(c2nnnn2-c2ccccc2)C1` (stereo not given), the RP-LC retention time is 934 s.

As to `Cc1ccn2c(=O)c(NC(=O)c3ccco3)c(C)nc2c1`, the RP-LC retention time is 544 s.

On to `O=C(NCC(=O)N1CCCc2ccccc21)c1ccccc1Br`, for which the RP-LC retention time turned out to be 822 s.

As for `O=C(CSc1ccc(N2CCCC(C(=O)NC3CC3)C2)nn1)Nc1ccc(Cl)cc1F` (stereo not given), the RP-LC retention time stood at 700 s.

Consider `COc1cccc(NC(=O)N2CCCC2c2nc(-c3cccc(Cl)c3)no2)c1` (stereo not given), for which the RP-LC retention time amounted to 1050 s.

Compound `COc1ccccc1NC(=O)c1cc2ccccc2cc1O` registered an RP-LC retention time of 1060 s.

`Cc1nn(-c2ccccc2)c2c1N(CC(=O)N1CCN(c3ccccc3)CC1)C(=O)CS2` registered an RP-LC retention time of 839 s.

As for `O=C1CC(Nc2ccc(N3CCCCC3)cc2)C(=O)N1c1ccccc1F` (stereo not given), the RP-LC retention time is 571 s.

`CCCn1cc(CCNS(=O)(=O)c2ccc(C(C)(C)C)cc2)c2cccnc21` gave an RP-LC retention time of 1070 s.

In turn, `CCOC(=O)C1=C(CN2CCN(C(C)CC)CC2)NC(=O)NC1c1ccc(OC(C)C)cc1` (stereo not given) registered an RP-LC retention time of 668 s.

In turn, `Cc1sc(NC(=O)Cc2ccccc2)nc1-c1ccc2c(c1)N(C)C(=O)CO2` displayed an RP-LC retention time of 926 s.

`Cc1noc(C)c1CNC(=O)c1ccc2c(c1)OCO2` yielded an RP-LC retention time of 683 s.

For the compound `O=C(CS(=O)Cc1cnn(-c2ccccc2)c1-n1cccc1)NCCc1ccc(Cl)cc1` (stereo not given), the RP-LC retention time was 892 s.

`Cc1cc(OC(C)C(=O)N[C@H](C(=O)O)C(C)C)c2c3c(c(=O)oc2c1)CCCC3` (stereo not given in full) gave an RP-LC retention time of 865 s.

In turn, `O=C1CC(/C=C/c2ccccc2)Cc2nc(N3CCN(c4ncccn4)CC3)ncc21` (stereo not given) gave an RP-LC retention time of 1130 s.

Turning to `Cc1ccc(NC(=O)N2CC(c3nc(C)no3)C3(CCOCC3)C2)cc1` (stereo not given), the RP-LC retention time was determined as 716 s.

Compound `O=C(Nc1ccccc1Cl)C1CN(S(=O)(=O)C2CC2)CC12CCCCC2` (stereo not given) had an RP-LC retention time of 1020 s.

With `CCn1c(C2CCN(C(=O)Nc3cccc(Cl)c3)CC2)cc(=O)n2nccc12`, the RP-LC retention time was determined as 718 s.

Compound `O=C1CCCc2cc(S(=O)(=O)N3CCC(C(=O)NCc4ccc5c(c4)OCO5)CC3)ccc2N1` displayed an RP-LC retention time of 706 s.

In turn, `Cc1ccc(NS(=O)(=O)c2cc(-c3cc(C(F)(F)F)on3)sc2C)cc1C` displayed an RP-LC retention time of 1200 s.

Compound `CCn1c(=O)oc2cc(-c3noc(CNC(=O)c4ccccc4)n3)ccc21` showed an RP-LC retention time of 801 s.

Compound `COc1ccc(C(=O)NCc2cnoc2-c2ccc(F)cc2)cc1OC` returned an RP-LC retention time of 820 s.

`COc1ccc(C(=O)N2CCC3(CC2)NC(=O)c2ccc(Cl)cc2N3)cc1` registered an RP-LC retention time of 735 s.

In the case of `Cc1ccc(NC(=O)N2CCC(N3CCN(Cc4ccccc4)C3=O)CC2)cc1C`, the RP-LC retention time amounted to 843 s.

`COc1ccc(NC(=O)NCCc2cn(C)c3ncccc23)c(OC)c1` came in with an RP-LC retention time of 640 s.

`Cn1cnc([N+](=O)[O-])c1Sc1n[nH]c(N)n1` displayed an RP-LC retention time of 599 s.

Take `CN1CCN(C(=O)C2CCN(S(=O)(=O)c3cc(-c4noc(C5CCC5)n4)cs3)CC2)CC1`: the RP-LC retention time was determined as 672 s.

The compound `CCSc1nc2ccc(NS(=O)(=O)c3ccc(F)c(F)c3)cc2s1` came in with an RP-LC retention time of 1070 s.

Compound `O=C(NCCc1cccs1)c1ccc(CN2CC(=O)N3CCCCC3C2=O)cc1` (stereo not given) had an RP-LC retention time of 692 s.

`CCOC(=O)c1c(C)c(CCC(=O)NCc2ccc3c(c2)OCO3)c(C)n1C` yielded an RP-LC retention time of 865 s.

Turning to `CN1CCN(C(=O)c2cc3c(s2)CCN(C(=O)c2ccc(Cl)cc2)C3)CC1`, the RP-LC retention time came to 627 s.

Consider `COc1cc(-c2nnc(COc3ccc(Cl)cc3Cl)o2)cc(OC)c1OC`, for which the RP-LC retention time stood at 994 s.

Compound `CN(C)c1ccc(C(=O)Nc2cc(-c3cccs3)no2)cc1` displayed an RP-LC retention time of 972 s.

Regarding `CCC1(CC)NC(=O)N(CC(=O)Nc2ccc(F)cc2F)C1=O`, the RP-LC retention time stood at 677 s.

Regarding `O=C(NCCn1c(-c2ccc(F)cc2)nc2cccnc21)c1ccc2c(c1)OCO2`, the RP-LC retention time amounted to 697 s.

Compound `COc1ccc(C2=C(C)C(N3CCN(c4ccccn4)CC3)=NS2(=O)=O)cc1` had an RP-LC retention time of 620 s.

`COc1ccc(-c2onc(C)c2C)cc1S(=O)(=O)N1CCN(c2ccccn2)CC1` returned an RP-LC retention time of 683 s.

Consider `COc1cc(Cl)ccc1C(=O)NC1CCN(c2cc(-c3cccs3)[nH]n2)C1` (stereo not given), for which the RP-LC retention time was 795 s.
